Publication PMC9147695, “Design, Synthesis, Bioactivity Evaluation, Crystal Structures, and In Silico Studies of New α-Amino Amide Derivatives as Potential Histone Deacetylase 6 Inhibitors” (Molecules, 2022)
Read-outs that look alike come from different tables or passages of the source.

Tests used:
[1] = tested on: RPMI 8226; assay: Anti-proliferative activity, CTG assay, RPMI 8226 cells; type: cell-based; conditions: for IC50: read-out: RPMI8226 (IC50); for inhibition at 10 µM / inhibition at 50 µM: read-out: Inhibition rate RPMI 8226 (%)
Description: (§1) RPMI 8226 and HL-7702 cells were cultured in RPMI-1640 medium, Hela cells were cultured in MEM medium, and HL-60 cells were cultured in IMDM medium with 1% penicillin–streptomycin solution and 10% FBS, respectively. The above cells were cultured at 37 °C and 5% CO2. After 24 h of cell spreading, 99 μL of medium per well was prepared and 1 μL of the compound prepared solution was added to the wells. Then, the solution was incubated at 37 °C in a 5% CO2 incubator for 72 h. The cell plates to be tested were left at room temperature and 100 μL of medium per well was discarded. Then, 100 μL of CTG reagent was added, placed in a rapid shaker for 2 min, and left at room temperature away from light for 30 min. The chemiluminescence signal was read by an envision multifunctional enzyme marker. The inhibition ratios and IC50 values were calculated using Prism Graph Pad software.

[2] = Cytotoxicity toward human normal liver cells HL-7702, CTG assay; type: cell-based; conditions: human, HL-7702 normal liver cells, read-out: 50% cytotoxic concentration (CC50) HL-7702
Description: as §1

[3] = tested on: Hela; assay: Anti-proliferative activity, CTG assay, Hela cells; type: cell-based; conditions: 72 h; for inhibition at 10 µM / inhibition at 50 µM: read-out: Inhibition rate Hela (%)
Description: as §1

[4] = tested on: HL-60; assay: Anti-proliferative activity, CTG assay, HL-60 cells; type: cell-based; conditions: for inhibition at 10 µM / inhibition at 50 µM: read-out: Inhibition rate HL-60 (%)
Description: as §1

[5] = tested on: HL-7702; assay: Cytotoxicity toward human normal liver cells HL-7702, CTG assay; type: cell-based; conditions: 72 h, read-out: 50% cytotoxic concentration (CC50) HL-7702
Description: as §1

[6] = Homo sapiens, RPMI-8226, 72 h, 10 μM
[7] = Homo sapiens, RPMI-8226, 72 h, 50 μM
[8] = Homo sapiens, HL-60, 72 h, 10 μM
[9] = Homo sapiens, HL-60, 72 h, 50 μM

| IC50 ([4]; Homo sapiens, HL-60, 72 h) | melting point | SMILES | IC50 ([1]; Homo sapiens, RPMI-8226, 72 h) | CC50 at 72 h [2] | inhibition at 10 µM [1, 6] | inhibition at 50 µM [1, 7] | inhibition at 10 µM ([3]; Homo sapiens, HeLa, 10 μM) | inhibition at 50 µM ([3]; Homo sapiens, HeLa, 50 μM) | inhibition at 10 µM [4, 8] | inhibition at 50 µM [4, 9] | other results |
| --- | --- | --- | --- | --- | --- | --- | --- | --- | --- | --- | --- |
| 10.8 µM | 163.4 to 165.3 °C | COC(=O)C1CCCN1S(=O)(=O)c1ccc(-c2ccc(NC(=O)CN)cc2)cc1 [7a, (2R)-Methyl 1-{4-[4-[4-(2-Aminoacetamido)phenyl]benzenesulfonyl}pyrrolidine-2-carboxylate] | 4.16 µM | 21.1 µM | – | – | – | – | – | – | Inhibition rate RPMI 8226 (%) ([1]; 10 μM, 72 h): 74.54 ± 1.06%; Inhibition rate RPMI 8226 (%) ([1]; 50 μM, 72 h): 99.78 ± 0.03%; Inhibition rate Hela (%) ([3]; 10 μM): 98.11 ± 1.33%; Inhibition rate Hela (%) ([3]; 50 μM): 99.84 ± 0.11%; IC50 [3]: 0.31 µM; Inhibition rate HL-60 (%) ([4]; 10 μM, 72 h): 42.45 ± 1.11%; Inhibition rate HL-60 (%) ([4]; 50 μM, 72 h): 97.24 ± 0.02% |
| – | 157.4 to 159.1 °C | COC(=O)[C@H]1CCCN1S(=O)(=O)c1ccc(-c2ccc(NC(=O)[C@@H](C)N)cc2)cc1 [7b, (2R)-1-(4-{4-[(2R)-2-Aminopropionamido]phenyl}benzenesulfonyl)pyrrolidine-2-carboxylate Methyl Ester] | – | – | -4.81 ± 3.62% | 41.4 ± 1.25% | -10.9 ± 2.58% | 2.44 ± 0.72% | 4.32 ± 1.35% | 46.9 ± 1.33% | – |
| – | 155.1 to 158.3 °C | COC(=O)[C@H]1CCCN1S(=O)(=O)c1ccc(-c2ccc(NC(=O)[C@H](C)N)cc2)cc1 [7c, Methyl (2R)-1-(4-{4-[(2S)-2-Aminopropionamido]phenyl}benzenesulfonyl)pyrrolidine-2-carboxylate] | – | – | 1.42 ± 0.97% | 49.7 ± 1.35% | -13.5 ± 1.33% | 8.63 ± 2.03% | 2.78 ± 0.7% | 49.6 ± 0.82% | – |
| – | 170.2 to 173.5 °C | COC(=O)[C@H]1CCCN1S(=O)(=O)c1ccc(-c2ccc(NC(=O)CN)nc2)cc1 [7d] | – | – | 1.7 ± 0.72% | 89.7 ± 1.48% | -5.24 ± 0.18% | 41.8 ± 2.62% | 5.53 ± 1.21% | 16.9 ± 1.74% | – |
| – | 146 to 148.4 °C | COC(=O)[C@H]1CCCN1S(=O)(=O)c1ccc(-c2ccc(NC(=O)[C@@H](C)N)nc2)cc1 [7e, Methyl (2R)-1-(4-{6-[(2R)-2-Aminopropionamido]pyridin-3-yl}benzenesulfonyl)pyrrolidine-2-carboxylate] | – | – | -2.63 ± 2.86% | 24.4 ± 0.79% | -11.9 ± 1.69% | 7.27 ± 0.41% | -0.89 ± 2.31% | 17.8 ± 0.86% | – |
| – | 146.2 to 148.9 °C | COC(=O)[C@H]1CCCN1S(=O)(=O)c1ccc(-c2ccc(NC(=O)[C@H](C)N)nc2)cc1 [7f, (2R)-1-(4-{6-[(2S)-2-Aminopropionamido]pyridin-3-yl}benzenesulfonyl)pyrrolidine-2-carboxylate Methyl Ester] | – | – | -4.38 ± 0.19% | 29.4 ± 5.22% | -2.62 ± 1.36% | 21.6 ± 6.65% | 11.1 ± 0.74% | 28.2 ± 0.98% | – |
| – | – | COC(=O)C1CCCN1S(=O)(=O)c1ccc(-c2ccc(NC(=O)CN)cc2)cc1 [13a, (2S)-Methyl 1-{4-[4-[4-(2-Aminoacetamido)phenyl]benzenesulfonyl}pyrrolidine-2-carboxylate] | – | – | 63.1 ± 1.99% | 99.89 ± 0.06% | 98.74 ± 0.04% | 99.68 ± 0.17% | 59 ± 2.12% | 99.25 ± 0.08% | IC50 ([1]; 72 h): 5.85 µM; CC50 [5]: 27.5 µM; IC50 [3]: 5.19 µM; IC50 ([4]; 72 h): 7.23 µM |
| 10.3 µM | 156.4 to 159.1 °C | COC(=O)[C@@H]1CCCN1S(=O)(=O)c1ccc(-c2ccc(NC(=O)[C@@H](C)N)cc2)cc1 [13b, (2S)-1-(4-{4-[(2R)-2-Aminopropionamido]phenyl}benzenesulfonyl)pyrrolidine-2-carboxylate Methyl Ester] | 25.2 µM | 89.1 µM | 0.89 ± 3.52% | 97.45 ± 0.36% | -4.83 ± 3.13% | 62.27 ± 0.57% | 43.49 ± 0.21% | 100.03 ± 0.04% | IC50 ([3]; Homo sapiens, HeLa): 20.6 µM |
| 30.9 µM | 155.3 to 157.6 °C | COC(=O)[C@@H]1CCCN1S(=O)(=O)c1ccc(-c2ccc(NC(=O)[C@H](C)N)cc2)cc1 [13c, Methyl (2S)-1-(4-{4-[(2S)-2-Aminopropionamido]phenyl}benzenesulfonyl)pyrrolidine-2-carboxylate] | 10.7 µM | 43.7 µM | 29.6 ± 0.48% | 82.9 ± 2.04% | -3.69 ± 0.34% | 72.3 ± 1.57% | 20 ± 2.83% | 96.55 ± 0.22% | IC50 ([3]; Homo sapiens, HeLa): 20.6 µM |
| 10.5 µM | 170.3 to 172.9 °C | COC(=O)[C@@H]1CCCN1S(=O)(=O)c1ccc(-c2ccc(NC(=O)CN)nc2)cc1 [13d] | 32.2 µM | – | 0.01 ± 0.52% | 92.27 ± 0.08% | -18.4 ± 2.15% | 33.4 ± 1.97% | 32 ± 3.2% | 99.93 ± 0.05% | IC50 ([3]; Homo sapiens, HeLa): 17.4 µM |
| – | 146.2 to 148.9 °C | COC(=O)[C@@H]1CCCN1S(=O)(=O)c1ccc(-c2ccc(NC(=O)[C@@H](C)N)nc2)cc1 [13e, Methyl (2S)-1-(4-{6-[(2R)-2-Aminopropionamido]pyridin-3-yl}benzenesulfonyl)pyrrolidine-2-carboxylate] | – | – | 5.5 ± 1.12% | 94.89 ± 0.02% | -12.6 ± 1.59% | 81.6 ± 1.09% | 17.43 ± 0.16% | 99.98 ± 0.05% | – |
| – | 146.8 to 149.1 °C | COC(=O)[C@@H]1CCCN1S(=O)(=O)c1ccc(-c2ccc(NC(=O)[C@H](C)N)nc2)cc1 [13f, (2S)-1-(4-{6-[(2S)-2-Aminopropionamido]pyridin-3-yl}benzenesulfonyl)pyrrolidine-2-carboxylate Methyl Ester] | – | – | 12.4 ± 0.52% | 89.23 ± 0.24% | -6.37 ± 0.44% | 91.57 ± 0.51% | 13.9 ± 0.73% | 99.81 ± 0.12% | – |
| – | – | O=C(CCCCCCC(=O)Nc1ccccc1)NO [SAHA, vorinostat, reference compound] | – | 2.03 µM | – | – | – | – | – | – | – |
